Experimental data reported in the Deep4Chem optical property database.
Each block holds one compound with its values, some of them ahead of it.

Assay: solvent given as SMILES

Compound: CC(C)(C)c1ccc(C2=C(c3ccc(N4c5ccccc5C(C)(C)c5ccccc54)cc3)S(=O)(=O)c3c2sc(-c2ccc(N4c5ccccc5C(C)(C)c5ccccc54)cc2)c3-c2ccc(C(C)(C)C)cc2)cc1
- fluorescence lifetime (in C1CCOC1): 1.61 ns

Compound: CCC(=O)c1ccc2cc(N(C)C)ccc2c1
- fluorescence lifetime (in C1CCCCC1): 1.6 ns
- fluorescence lifetime (in C1CCOC1): 3.58 ns
- fluorescence lifetime (in CC#N): 3.96 ns
- fluorescence lifetime (in CCCCCC): 0.29 ns
- fluorescence lifetime (in CCO): 3.65 ns
- fluorescence lifetime (in CN(C)C=O): 3.85 ns
- fluorescence lifetime (in CO): 3.04 ns
- fluorescence lifetime (in CS(C)=O): 3.12 ns
- fluorescence lifetime (in Cc1ccccc1): 2.33 ns
- fluorescence lifetime (in ClC(Cl)Cl): 3.09 ns
- fluorescence lifetime (in ClCCl): 3.44 ns
- fluorescence lifetime (in O): 2.1 ns
- fluorescence lifetime (in OCC(O)CO): 3.8 ns
- fluorescence lifetime (in c1ccccc1): 3.3 ns

Compound: CSc1ccc2c(c1)N(CCCN1CCN(C)CN1C)c1ccccc1S2
- fluorescence lifetime (in CC#N): 1.03 ns
- fluorescence lifetime (in CO): 0.96 ns
- fluorescence lifetime (in O): 1.47 ns

Compound: CN1CCN(CCCN2c3ccccc3Sc3ccc(Cl)cc32)CC1
- fluorescence lifetime (in CC#N): 0.91 ns
- fluorescence lifetime (in CO): 0.89 ns

Compound: Cc1ccc(-c2c3ccc([nH]3)c3nc(c(-c4ccc(C#N)cc4)c4ccc([nH]4)c4ccc([nH]4)c(-c4ccc(C)cc4)c4ccc2o4)C=C3)cc1
- fluorescence lifetime (in C1CCOC1): 5.26 ns
- fluorescence lifetime (in Cc1ccccc1): 4.39 ns
- fluorescence lifetime (in c1ccccc1): 5.94 ns

Compound: CCCn1c2cccc3oc4cccc5oc6cccc1c6[c+](c45)c32
- fluorescence lifetime (in CC#N): 23.2 ns
- fluorescence lifetime (in CO): 20.7 ns
- fluorescence lifetime (in ClCCl): 21.8 ns
- fluorescence lifetime (in OCC(O)CO): 19.7 ns

Compound: C(=C\c1ccc(Nc2ccccc2)cc1)/c1ccccc1
- fluorescence lifetime (in CC#N): 0.39 ns
- fluorescence lifetime (in CCCCCC): 0.34 ns

Compound: c1ccc(-c2cc3cccc[n+]3[b-]3ccc(-c4cc[b-]5c(c4)c(-c4ccccc4)cc4cccc[n+]54)cc32)cc1
- fluorescence lifetime (in C1CCCCC1): 4 ns

Compound: CCCCCCCCC1(CCCCCCCC)c2ccccc2-c2ccc(-c3nnc(-c4cccc(-n5c6ccc(C(C)(C)C)cc6c6cc(C(C)(C)C)ccc65)c4)o3)cc21
- fluorescence lifetime (in Cc1ccccc1): 7.65 ns

Compound: Cc1ccccc1C1=C2C=c3c(oc4ccc(C(C)(C)C)cc34)=[N+]2[B-](F)(F)n2c1cc1c3cc(C(C)(C)C)ccc3oc12
- fluorescence lifetime (in C1CCCCC1): 4.11 ns
- fluorescence lifetime (in CCOC(C)=O): 4.28 ns
- fluorescence lifetime (in CO): 4.21 ns

Compound: C(=C\c1ccc(N(c2ccccc2)c2ccccc2)cc1)/c1ccccc1
- fluorescence lifetime (in CC#N): 1.37 ns
- fluorescence lifetime (in CCCCCC): 0.51 ns

Compound: COc1cccc2c1-c1ccccc1C2=O
- fluorescence lifetime (in C1CCCCC1): 10.7 ns
- fluorescence lifetime (in CC#N): 1.8 ns

Compound: C[n+]1ccc2c(ccc3c[n+](C)ccc32)c1
- fluorescence lifetime (in CC#N): 6.6 ns

Compound: N#Cc1cc(-n2c3ccccc3c3ccccc32)c(C#N)cc1-n1c2ccccc2c2ccccc21
- fluorescence lifetime (in c1ccc2c(c1)c1ccccc1n2P1(n2c3ccccc3c3ccccc32)=NP(n2c3ccccc3c3ccccc32)(n2c3ccccc3c3ccccc32)=NP(n2c3ccccc3c3ccccc32)(n2c3ccccc3c3ccccc32)=N1): 34 ns

Compound: c1ccc(-c2nnc(-c3ccc(N4c5ccccc5N(c5ccccc5)c5ccccc54)cc3)n2-c2ccccc2)cc1
- fluorescence lifetime (in Cc1ccccc1): 3.9 ns
- fluorescence lifetime (in c1cc(-n2c3ccccc3c3ccccc32)cc(-n2c3ccccc3c3ccccc32)c1): 3.5 ns

Compound: Nc1cccc2c1-c1ccccc1C2=O
- fluorescence lifetime (in C1CCCCC1): 3.2 ns
- fluorescence lifetime (in CC#N): 4.2 ns
- fluorescence lifetime (in c1ccccc1): 9.3 ns

Compound: COC(=O)C(NC(=O)OC(C)(C)C)c1ccc2oc(-c3cc(OC)ccc3OC)nc2c1 (stereo not drawn)
- fluorescence lifetime (in CC1CCCCC1): 1.93 ns
- fluorescence lifetime (in CC#N): 2.03 ns
- fluorescence lifetime (in CO): 2.03 ns

Other lines, results leading:

- fluorescence lifetime (in CC1CCCCC1): 2.9 ns
- fluorescence lifetime (in CC#N): 1.92 ns
- fluorescence lifetime (in CO): 1.19 ns
Compound: CC(C)(C)OC(=O)NC(Cc1ccc2oc(-c3ccccn3)nc2c1)C(=O)O (stereo not drawn)

- fluorescence lifetime (in ClC(Cl)Cl): 1.18 ns
Compound: CC(C)(C)c1ccc(C2=c3sc(-c4ccc(C(C)(C)C)cc4)c(-c4ccc(C(C)(C)C)cc4)c3=[N+]3C2=Nc2c(-c4ccc(C(C)(C)C)cc4)c4sc(-c5ccc(C(C)(C)C)cc5)c(-c5ccc(C(C)(C)C)cc5)c4n2[B-]3(F)F)cc1

- fluorescence lifetime (in ClC(Cl)Cl): 2.6 ns
Compound: COc1cc(OC)c2cc(-c3cccc(-c4cc5c(OC)cc(OC)cc5oc4=O)c3)c(=O)oc2c1

- fluorescence lifetime (in C1CCCCC1): 0.49 ns
Compound: COC(=O)c1noc(-c2ccccc2)c1Br

- fluorescence lifetime (in CCO): 2.25 ns
Compound: CC(C)(C)c1cc(C(C)(C)C)c(-c2nnc(-c3ccc(-n4c5ccccc5c5ccccc54)cc3)o2)c(C(C)(C)C)c1

- fluorescence lifetime (in ClCCl): 1.6 ns
Compound: C[Si]1(C)c2cc(-c3ccccc3)ccc2C=Cc2ccc(-c3ccccc3)cc21

- fluorescence lifetime (in C1CCCCC1): 2.4 ns
Compound: CN(C)c1ccc2nc(-c3ccc(C(=O)OC[C@H](NC(=O)OC(C)(C)C)C(=O)OCc4ccccc4)cc3)sc2c1

- fluorescence lifetime (in CC#N): 5.5 ns
- fluorescence lifetime (in CCCCCC): 4 ns
Compound: Cc1ccc(-n2cccc2)cc1

- fluorescence lifetime (in ClC(Cl)Cl): 3.88 ns
Compound: CCCCCCN1C(=O)c2cccc3c(-c4ccc(OC)s4)ccc(c23)C1=O

- fluorescence lifetime (in C1CCOC1): 7.02 ns
- fluorescence lifetime (in ClC(Cl)Cl): 8.86 ns
- fluorescence lifetime (in ClCCl): 7.02 ns
Compound: O=C1NC(=O)c2ccc(N3CCCCC3)c3cccc1c23

- fluorescence lifetime (in ClCCl): 0.921 ns
Compound: COc1ccc(/C2=C3N=C(C(c4ccccc4)=C/3c3ccccc3)/C(c3ccc(OC)cc3)=c3\[nH]/c(c(-c4ccccc4)c3-c3ccccc3)=C(/c3ccc(OC)cc3)C3=N/C(=C(/c4ccc(OC)cc4)c4[nH]c2c(-c2ccccc2)c4-c2ccccc2)C(c2ccccc2)=C3c2ccccc2)cc1

- fluorescence lifetime (in ClCCl): 6.91 ns
Compound: Cc1cc(C)n2c1C=C1c3ccccc3C(c3cccn3C)=[N+]1[B-]2(F)F

- fluorescence lifetime (in CC#N): 0.6 ns
Compound: Cc1ccc(-c2ccc(/C=C/c3ccc(C#N)cc3)cn2)nc1

- fluorescence lifetime (in C1CCCCC1): 4.7 ns
Compound: c1cc2cccc3c4cccc5cccc(c(c1)c23)c54

- fluorescence lifetime (in C1COCCO1): 0.5 ns
- fluorescence lifetime (in CC#N): 0.7 ns
- fluorescence lifetime (in CCO): 1.35 ns
- fluorescence lifetime (in CO): 1.6 ns
- fluorescence lifetime (in ClCCCl): 0.74 ns
- fluorescence lifetime (in O): 7.3 ns
Compound: Cc1cccc2nc3c(=O)[nH]c(=O)[nH]c3nc12
